We go through one molecule from patent US20260234150A1, “COMPOUND FOR INHIBITING NLRP3, PREPARATION METHOD, AND USE” (DOVETREE MEDICINES UNUS, INC., priority 2023, published 2026).

Data set [1] in a line: Pharmacokinetic evaluation in mice. It counts as in vivo. The following applies: mouse, plasma, ICR male mice. How it is done:
Purpose: ICR male mice were selected as test animals. The LC-MS/MS method was used to quantitatively determine the drug concentration in the plasma of mice at different time points after intravenous injection or oral administration of the test compound to evaluate the pharmacokinetic characteristics of the test drug in mice.
Experimental materials: ICR mice (male, 15-35g, 5-10 weeks old, Shanghai Xipu-Bikai Experimental Animal Co., Ltd.)
The clear solution of the test compound was injected into ICR mice via the tail vein (without fasting, vehicle: 5% DMSO/10% Solutol/85% Saline) and administered to ICR mice by gavage (fasting for 10-14h). For intravenous administration, blood was collected from the submandibular venous plexus at 0.033, 0.083, 0.25, 0.5, 1, 2, 4, 8, and 24 hrs after administration, placed in an EDTA-K2 anticoagulant tube (Jiangsu Kangjian Medical Supplies Co., Ltd.), mixed, and centrifuged at 2-8° C., 6800 g for 6 minutes to obtain plasma; for oral gavage administration, blood was collected from the submandibular venous plexus at 0.083, 0.25, 0.5, 1, 2, 4, 6, 8, and 24 hrs after administration, placed in an EDTA-K2 anticoagulant tube (Jiangsu Kangjian Medical Supplies Co., Ltd.), mixed, and centrifuged at 2-8° C., 6800 g for 6 minutes to obtain plasma. The blood drug concentration was determined by LC-MS/MS, and the pharmacokinetic software Phoenix WinNonlinTM Version 7.0 (Pharsight, USA) was used to calculate the relevant pharmacokinetic parameters by the non-compartmental linear logarithmic trapezoidal method. The compounds of the present disclosure have good pharmacokinetic characteristics in mice, and the test results of representative compounds are shown in Table 8.

Data set [2] can be described thus: Pharmacokinetic evaluation in rats. The following applies: rat, plasma, SD male rats. It is filed as in vivo. The procedure:
Purpose: The test animals were SD male rats. The LC-MS/MS method was used to quantitatively determine the drug concentration in the plasma of rats at different time points after intravenous injection or oral administration of the test compound to evaluate the pharmacokinetic characteristics of the test drug in rats.
SD rats (male, 160-300 g, 5-10 weeks old, Shanghai Xipu-Bikai Experimental Animal Co., Ltd.)
The clear solution of the test compound was injected into SD rats via the tail vein (without fasting) (vehicle: 5% DMSO/10% Solutol/85% Saline), and the clear solution of the test compound was administered to SD rats by gavage (fasting for 10-14 h, free access to water) (vehicle: 5% DMSO/10% Solutol/85% Saline). For intravenous administration, blood was collected from the jugular vein at 0.033, 0.083, 0.25, 0.5, 1, 2, 4, 8, and 24 hrs after administration, placed in an EDTA-K2 anticoagulant tube (Jiangsu Kangjian Medical Supplies Co., Ltd.), mixed, and centrifuged at 2-8° C., 6800 g for 6 minutes to obtain plasma; for oral gavage administration, blood was collected from the jugular vein at 0.083, 0.25, 0.5, 1, 2, 4, 6, 8, and 24 hrs after administration, placed in an EDTA-K2 anticoagulant tube (Jiangsu Kangjian Medical Supplies Co., Ltd.), mixed, and centrifuged at 2-8° C., 6800 g for 6 minutes to obtain plasma. The plasma concentration was determined by LC-MS/MS, and the relevant pharmacokinetic parameters were calculated by the non-compartmental linear logarithmic trapezoidal method using Phoenix WinNonlinTM Version 7.0 (Pharsight, USA) pharmacokinetic software. The compounds of the present disclosure have good pharmacokinetic characteristics in rats.

Where [3] appears, read: 1 mg/kg, Dosage IV/PO 1/3 mg/kg.
The mark [4] stands for this setting: 1 mg/kg, Dosage IV/PO 1/3 mg/kg, read-out: Vdss.
[5] abbreviates: IV 1 mg/kg, read-out: AUC0-last IV.
Setting [6] is: IV 1 mg/kg, read-out: T1/2 (IV, h) (converted).
Setting [7] is: PO 3 mg/kg, read-out: AUC0-last PO.

Consider `CC(=O)N1CCOC[C@H]1CNc1nc2nc(-c3c(C)cc(C(F)(F)F)cc3O)ccc2o1` [Compound 111], for which the figures for the clearance in data set [1] (setting [3]) and in data set [2] (setting [3]) were 19.2 mL/min/kg and 5.78 mL/min/kg, respectively. In addition, the figures for the Vd in data set [1] (setting [4]) and in data set [2] (setting [4]) were 1.93 L/kg and 1.02 L/kg, respectively. The figures for the Cmax in data set [1] (Dosage IV/PO 1/3 mg/kg) and in data set [2] (Dosage IV/PO 1/3 mg/kg) were 1550 ng/mL and 1390 ng/mL, respectively. The bioavailability in data set [1] (Dosage IV/PO 1/3 mg/kg) amounted to 137%; in data set [2] (Dosage IV/PO 1/3 mg/kg), 94%. The AUC(0-t) in data set [1] (setting [5]) turned out to be 834 ng·h/mL; in data set [1] (setting [7]), 3440 ng·h/mL; in data set [2] (setting [5]) it was 2880 ng·h/mL; in data set [2] (setting [7]) it was 8120 ng·h/mL. Besides, the figures for the half-life in data set [1] (setting [6]) and in data set [2] (setting [6]) were 2.12 h and 3.36 h, respectively.
